{"source": "patent US5985636A", "about": "“Method and compositions for inhibiting oxidation” (priority 1997, dated 1999)", "test_system": "lipid oxidation in 1-stearoyl-2-linoleoyl-sn-glycero-3-phosphocholine large unilamellar vesicles (LUVs)", "experiment": "Fluorescence assay for antioxidant activity (DPH-PA probe, Fe2+-induced lipid peroxidation in large unilamellar vesicles)", "assay_type": "biochemical", "conditions": "pH 7.0; for % of inhibition (percent inhibition based upon Fe+2 oxidation): 21 min", "from_the_text": "The fluorescent assay is described first.\nFluorescence assay for antioxidant activity (general): The need to screen large numbers of compounds or extracts for antioxidant activity requires that a model system (or systems) be employed which reasonably well represents the structural and functional characteristics of the substrate in the food product. The test must also be sensitive, rapid, and inexpensive. […] Large unilamellar vesicles consisting of 1-stearoyl-2-linoleoly-sn-glycero-3-phosphocholine are prepared, which closely resemble the properties of biological membranes, one of the primary sites of peroxidation. A fluorescent probe, 1,6-diphenylhexatriene propionic acid, is incorporated into the membranes such that the polar head group anchors the probe near the aqueous interface, while the hydrophobic portion lies parallel to the fatty acid chains. This probe reacts with the free radicals generated during peroxidation, resulting in a decrease in fluorescence intensity with time. A peroxidation initiator (such as ferrous metal ions or the free radical generator AAPH (Azobis-[2-amidinopropane hydrochloride]) is used to start the reaction, and the kinetics of fluorescence decrease are determined in the presence or absence of the antioxidant to be tested. An assay for a compound at a given concentration presently takes only twenty-one minutes, consumes only a few micrograms of lipid, and can be readily conducted with a simple fluorometer.\nBriefly, the lipid is dissolved in chloroform, and is dried to a thin film using a rotary evaporator. The dried film is resuspended in an aqueous buffer, and is repeatedly extruded through a polycarbonate filter of 100 nm pore size using a Liposofast piposome extruder (Avestin, Inc., Ottawa, Canada). […] The fluorescent probe, diphenylhexatriene-propionic acid (DPH-PA), is incorporated into the vesicles during preparation at a mole ratio of 1:350 (probe:lipid). For the fluorescence experiments, LUVs containing DPH-PA is suspended at a final concentration of 100 μM in 100 mM NaCl, 50 mM tris-HEPES buffer at pH 7.0. The fluorescent probe is excited at 384 nm and emission is monitored at 423 nm. […] AAPH; the progress is monitored by the decrease of the fluorescence intensity of DPH-PA resulting from reaction with free radicals generated over twenty-one minutes. A plot of the decrease of fluorescence intensity as a function of time will be used to determine the kinetics of lipid oxidation.\n^1 --Fuorescent intensity at 21 minutes.\n^2 --Percent Inhibition based upon Fe^+2 oxidation."}
{"compound": "C[C@@H]1O[C@@H](OC[C@H]2O[C@@H](Oc3cc4c(O)cc(O)cc4[o+]c3-c3ccc(O)c(O)c3)[C@H](O[C@@H]3O[C@H](CO)[C@@H](O)[C@H](O)[C@H]3O)[C@@H](O)[C@@H]2O)[C@H](O)[C@H](O)[C@H]1O", "note": "[Anthocyanin 1, Cyanidin-3-(2\"-O-β-D-glucopyranosyl-6\"-O-α-L-rhamnosyl-β-D-glucopyranoside)]", "values": [{"measurement": "% of inhibition (percent inhibition based upon Fe+2 oxidation)", "setting": "2 μM", "result": 38.6, "unit": "%"}, {"measurement": "Fl. int. at 21 min. (fluorescent intensity at 21 minutes)", "setting": "2 μM", "result": 0.48}]}
{"compound": "C[C@@H]1O[C@@H](OC[C@H]2O[C@@H](Oc3cc4c(O)cc(O)cc4[o+]c3-c3ccc(O)c(O)c3)[C@H](O)[C@@H](O)[C@@H]2O)[C@H](O)[C@H](O)[C@H]1O", "note": "[Anthocyanin II, Cyanidin-3-(6\"-O-α-L-rhamnopyranosyl-β-D-glucopyranoside)]", "values": [{"measurement": "% of inhibition (percent inhibition based upon Fe+2 oxidation)", "setting": "concentration not given", "result": 70.0, "unit": "%"}, {"measurement": "Fl. int. at 21 min. (fluorescent intensity at 21 minutes)", "setting": "concentration not given", "result": 0.7}]}
{"compound": "COc1ccc(O)c(C(C)(C)C)c1", "note": "[BHA]", "values": [{"measurement": "% of inhibition (percent inhibition based upon Fe+2 oxidation)", "setting": "2 μM", "result": 87.1, "unit": "%"}, {"measurement": "Fl. int. at 21 min. (fluorescent intensity at 21 minutes)", "setting": "2 μM", "result": 0.82}]}
{"compound": "Cc1cc(C(C)(C)C)c(O)c(C(C)(C)C)c1", "note": "[BHT]", "values": [{"measurement": "% of inhibition (percent inhibition based upon Fe+2 oxidation)", "setting": "2 μM", "result": 94.3, "unit": "%"}, {"measurement": "Fl. int. at 21 min. (fluorescent intensity at 21 minutes)", "setting": "2 μM", "result": 0.87}]}
{"compound": "CCCOC(=O)c1cc(O)c(O)c(O)c1", "note": "[Propyl gallate]", "values": [{"measurement": "% of inhibition (percent inhibition based upon Fe+2 oxidation)", "setting": "2 μM", "result": 78.6, "unit": "%"}, {"measurement": "Fl. int. at 21 min. (fluorescent intensity at 21 minutes)", "setting": "2 μM", "result": 0.76}]}
{"compound": "CC(C)(C)c1cc(O)ccc1O", "note": "[TBHQ]", "values": [{"measurement": "% of inhibition (percent inhibition based upon Fe+2 oxidation)", "setting": "2 μM", "result": 90.0, "unit": "%"}, {"measurement": "Fl. int. at 21 min. (fluorescent intensity at 21 minutes)", "setting": "2 μM", "result": 0.84}]}
{"compound": "Cc1c(C)c2c(c(C)c1O)CCC(C)(CCCC(C)CCCC(C)CCCC(C)C)O2", "note": "(centres unmarked) [a-Tocopherol]", "values": [{"measurement": "% of inhibition (percent inhibition based upon Fe+2 oxidation)", "setting": "2 μM", "result": 0.0, "unit": "%"}, {"measurement": "Fl. int. at 21 min. (fluorescent intensity at 21 minutes)", "setting": "2 μM", "result": 0.21}]}
